Source: PMC11809919, “Quinoxaline-based anti-schistosomal compounds have potent anti-plasmodial activity” (PLOS Pathogens, 2025)
Where “and” joins values, the source holds several entries; their conditions need not be identical. Identical values can stand only once. Like-named read-outs stand apart in the source and are kept apart here.

Assays:
P. falciparum 3D7 = test: Compound dose-response assay (72 h, SYBR Green I), 3D7; assay type: cell-based, Plasmodium falciparum; details: for IC50: 72 h, asexual blood stage; for Selectivity index HepG2/3D7: HepG2 72 h CC50 / Pf 3D7 IC50
Procedure: (§1) P. falciparum parasites were cultured at 3% hematocrit in RPMI 1640 (Gibco) medium consisting of 0.5% Albumax II (Gibco), 25 mM HEPES (Sigma), 0.21% sodium bicarbonate, 1x GlutaMAX (Gibco), 25 μg/mL gentamicin (Gibco). A tri-gas mixture (1% O2, 3% CO2, and 96% N2) was used for parasite cultures. Parasites were synchronized using a sorbitol and Percoll density gradient method. The following parasite strains were used: 3D7, Dd2 (MR4, MRA-156, T. Wellems), GB4 (MR4, MRA-925, T. Wellems), UG659 (P. Rosenthal), Tanzania (MR4, MRA-1169, Michal Fried), Cam/PH0212C (R. Fairhurst), and Cam3.II/ PH0306-C (R. Fairhurst). Transfection was performed using ring-stage parasites (5–8% parasitemia) using a Gene Pulser Xcell (Biorad) electroporator.
(§2) Compound dose-response assays were performed in flat-bottom 96-well plates. Tightly synchronized ring-stage parasites were diluted to 1% parasitemia at 2% hematocrit, and incubated with a two-fold serial dilution of compounds in complete medium. Untreated parasites or uninfected RBCs were included in the assay plate as controls. Parasite growth was assessed after 72 h by lysing parasites using 2× lysis buffer consisting of 10 mM Tris-HCl, 5 mM EDTA, 0.1% w/v saponin, and 1% v/v Triton X-100, supplemented with 2× SYBR Green I (Molecular Probes). The fluorescence was measured using a FluorStar Omega v5.11 plate reader. IC50 analysis was performed using GraphPad Prism v9, and statistical significance was determined by a two-sided Mann-Whitney U test. All assays were performed in technical duplicate with at least three biological replicates, as noted in the figure legends.

P. falciparum Dd2 [1] = test: Compound dose-response assay (72 h, SYBR Green I), Dd2; assay type: cell-based, Plasmodium falciparum; details: for IC50: 72 h, asexual blood stage; for Selectivity index HepG2/Dd2: HepG2 72 h CC50 / Pf Dd2 IC50
Procedure: as §1, §2

[2] = test system: P. falciparum strains Cam/PH0212C, Cam3.II/PH0306-C, UG659, GB4, Tanzania; test: Dose-response assay against panel of geographically distinct strains; assay type: cell-based, Plasmodium falciparum; details: Cambodian isolates
Procedure: as §1, §2

[3] = test system: Dd2-Polδ clones C22-1.1 and C22-2.1; test: Dose-response assay on compound 22-selected clones (cross-resistance); assay type: cell-based, Plasmodium falciparum
Procedure: Resistance selections were performed using a mutator parasite line Dd2-Polδ with an elevated mutation rate. Three independent flasks with either 1×10^8 or 1×10^9 parasites each were treated with 5×IC50, and parasite death was monitored by microscopy (Giemsa staining). […] After eight days, compounds were removed from the media and the media was changed on alternate days. […] For recrudescent cultures, compound susceptibility was determined by dose-response assays. Parasite clones were obtained by limiting dilution and harvested for genomic DNA extraction, followed by whole-genome sequencing.
as §2

[4] = test system: P. falciparum PfQRP1 mutants (G1612V, D1863Y, D1829*, D1829A); test: Dose-response assay on CRISPR-edited PfQRP1 mutant lines; assay type: cell-based, Plasmodium falciparum; details: for Susceptibility in CRISPR-edited G1612V and D1863Y PfQRP1 lines: versus silent-mutation and wildtype controls
Procedure: To generate the PfQRP1 hydrolase mutants (D1829stop and D1829A), the pDC2-Cas9-gRNA-donor plasmid was transfected into the P. falciparum Dd2 line. Donor plasmid (50 µg) containing the sgRNA ([…]) and a pfqrp1 homology region of 672 bp, centred on the D1829 residue, was used for transfection. Transfectants were selected using 5 nM WR99210 (a potent inhibitor of P. falciparum dihydrofolate reductase (DHFR) provided by Jacobus Pharmaceuticals) for 8 days, followed by culturing without drug until parasites were observed. Parasite clones were obtained using limiting dilution cloning. Confirmation of gene editing was performed with allele-specific PCR (forward primer […] and reverse primer […]) and Sanger sequencing using an internal primer ([…]).
as §2

[5] = test system: P. falciparum ring, trophozoite and schizont stages; test: Stage specificity assay; assay type: cell-based, Plasmodium falciparum; details: for Stage-specificity: 10 h pulse at ring, trophozoite or schizont stage
Procedure: Stage-specific drug assays were performed following a protocol modified from Murithi et al.. In this assay, parasites were tightly synchronized to the ring stage with repeated 5% sorbitol treatments. On the assay day, schizonts were purified using a 63% Percoll gradient and allowed to […]. […] Parasites were then plated in 96-well plates and exposed to different drug concentrations at various stages: […] Drug treatment was removed through three rounds of washes. Plates were lysed 62 h after drug washout, and parasite growth was assessed similarly to the standard 72 h assay that used constant drug exposure.

P. falciparum Dd2 [6] = test: Rate of killing (CFDA-SE labelled RBC reinvasion); assay type: cell-based, Plasmodium falciparum; details: Dd2, 10×IC50, 24 h or 48 h
Procedure: The rate of killing was evaluated as previously described in Linares et al.. […] After treatment, the compound was removed, and the culture was diluted (1/3) using fresh RBCs (2% haematocrit) pre-labelled with CFDA-SE (carboxylfluorescein diacetate succinimidyl ester, Life Technologies). Following a 48 h incubation under standard conditions, the ability of treated parasites to infect fresh labelled RBCs was measured using a Cytoflex flow cytometer by quantifying double-positive RBCs after labelling the parasites with MitoTracker Deep Red. Parasite viability was determined as the percentage of infected CFDA-SE-labelled RBCs in drug-treated samples at 24 and 48 h, compared to equivalent untreated controls. Standard compounds dihydroartemisinin, chloroquine, and atovaquone were used as benchmarks for comparing the killing rate of the test compounds.

S. mansoni schistosomula = test system: S. mansoni schistosomula; design: method as in Padalino et al. [13]; details: ref Padalino et al. [13], cited from earlier work
HepG2 cells = test system: HepG2 cells; design: method as in Padalino et al. [13]; details: ref Padalino et al. [13], cited from earlier work
β-hematin formation = test: Detergent-based β-hematin inhibition assay; assay type: biochemical; details: cell-free, NP40 detergent, pH 4.8; read-out: βH Inhibition IC50, individual biological replicate
Procedure: From this stock 40 μL of each was delivered to wells in the final column (column 12) of a 96-well plate together with distilled water (120 μL) and NP40 detergent (305.5 mM, 40 μL). […] A serial dilution of each compound (100 μL) from column 12 to column 2 was carried out. Column 1 served as a blank with 0 mM sample. A 25 mM hematin stock solution was prepared by sonicating hemin in DMSO for one minute and then suspending 179 μL of this in a 1 M acetate buffer (20 mL, pH 4.8). […] The plate was covered and incubated at 37°C for 5 h. […] Acetone (60 μL) was then added to assist with hematin dispersion. The UV-vis absorbance of the plate wells was read on a SpectraMax […] plate reader.

[7] = test system: 3D7 parasites (hemoglobin, 'free' heme, hemozoin); test: Cellular heme fractionation assay; assay type: cell-based, Plasmodium falciparum; details: 3D7, 0.5 – 2.5× IC50, 30 h
Source text: Cellular heme fractionation to measure the amounts of different heme species was thereafter conducted as previously described. […] Pellets were then resuspended in 1× PBS (pH 7.5) and an aliquot of the trophozoite suspension used to quantify the total number of trophozoites isolated using flow cytometry. Contents of the remaining trophozoite pellet were then released by hypotonic lysis and sonication. […] The UV−visible spectrum of each heme fraction as an Fe(III)heme−pyridine complex was measured using a multi-well plate reader (Spectramax 340PC; Molecular Devices). The total amount of each heme species was quantified using a heme standard curve whereby the mass of each heme-Fe species per trophozoite (fg/cell) was calculated by dividing the total amount of each heme species by the corresponding number of parasites in that fraction as determined by flow cytometry. Statistical comparisons and analyses for trends were made on GraphPad Prism version 10 using Students’ t-test with Welch correction. The total amount of heme obtained from each fraction was quantified using a standard curve prepared from a 100 μg/mL heme standard solution of hematin (porcine) in 0.3 M NaOH. Serial dilutions of this standard were carried out in a 96-well plate with 100 μL 0.3 M NaOH as a blank. […] The visible spectra of heme as Fe(III)heme-pyridine complex were recorded in a multi-well plate reader. The amount of heme Fe per cell was calculated by dividing the total heme Fe in each fraction by the number of cells determined in each fraction.

[8] = test system: P. berghei liver stage parasites; design: method as in PMID 22096101; details: cited from earlier work
S. mansoni adult worms = test system: S. mansoni adult worms; design: method as in PMID 24416463; details: 400 compounds of the Malaria Box; cited from earlier work
[9] = Plasmodium falciparum, 3D7, 72 h
[10] = Plasmodium falciparum, DD2, 72 h
[11] = 72 h, read-out: 72 h -phenotype EC50
[12] = average of phenotype and motility, read-out: Average EC50
[13] = HepG2, 24 h, read-out: 24 h CC50
[14] = HepG2, 72 h, read-out: 72 h CC50

| Compound | Selectivity index HepG2/3D7 (P. falciparum 3D7) | IC50 (P. falciparum 3D7; [9]) | Selectivity index HepG2/Dd2 (P. falciparum Dd2 [1]) | IC50 (P. falciparum Dd2 [1]; [10]) | Potency against panel of geographically distinct strains [2] | Shift in IC50 in compound 22-selected clones versus parental Dd2-Polδ [3] | Effect of D1829 stop / D1829A PfQRP1 mutation on IC50 [4] | Increase in IC50 in D1829A / D1829 stop PfQRP1 mutants [4] | Susceptibility in CRISPR-edited G1612V and D1863Y PfQRP1 lines [4] | Drop in potency for a 10 h pulse compared with continuous exposure for 72 h [5] | Stage-specificity [5] | Rate of parasite killing (P. falciparum Dd2 [6]) | EC50 (S. mansoni schistosomula; [11]) | EC50 (S. mansoni schistosomula; [12]) | EC50 (S. mansoni schistosomula; read-out: Motility EC50) | CC50 (HepG2 cells; [13]) | CC50 (HepG2 cells; [14]) | Activity against S. mansoni adult worms (S. mansoni adult worms) | also measured |
| --- | --- | --- | --- | --- | --- | --- | --- | --- | --- | --- | --- | --- | --- | --- | --- | --- | --- | --- | --- |
| O=[N+]([O-])c1ccc2nc(Nc3ccc(Cl)c(Cl)c3)c(Nc3ccc(Cl)c(Cl)c3)nc2c1 [Compound 22] | 11.9 | 22 nM | 8.0 | 32 nM | potencies similar to those recorded for the lab strain Dd2 | small but consistent shift in IC50 | elevated IC50 | 2–3 fold | reduced susceptibility | 3–4 fold | did not demonstrate a strong stage-specificity | rapidly reduced parasitemia | 470 nM | 440 nM | 420 nM | 7400 nM | 260 nM | – | IC50 (P. falciparum 3D7): 21.9 nM; IC50 (P. falciparum Dd2 [1]): 32.4 nM |
| O=[N+]([O-])c1ccc2nc(Nc3ccc(C(F)(F)F)cc3)c(Nc3ccc(C(F)(F)F)cc3)nc2c1 [Compound 31] | 8.2 | 9.7 nM | 5.7 | 14 nM | potencies similar to those recorded for the lab strain Dd2 | small but consistent shift in IC50 | elevated IC50 | 2–3 fold | reduced susceptibility | 3–4 fold | did not demonstrate a strong stage-specificity | rapidly reduced parasitemia | 340 nM | 310 nM | 280 nM | 8800 nM | 80 nM | – | – |
| O=[N+]([O-])c1ccc2nc(Nc3cc(C(F)(F)F)ccc3F)c(Nc3cc(C(F)(F)F)ccc3F)nc2c1 [Compound 33] | 22.2 | 4.5 nM | 14.1 | 7.1 nM | potencies similar to those recorded for the lab strain Dd2 | unexpectedly not | not affected | – | – | 3–4 fold | did not demonstrate a strong stage-specificity | rapidly reduced parasitemia | 150 nM | 150 nM | 150 nM | 27500 nM | 100 nM | – | – |
| Brc1ccc(Nc2nc3ccccc3nc2Nc2ccc(Br)cc2)cc1 [MMV007224, 2-N,3-N-bis(4-bromophenyl)quinoxaline-2,3-diamine] | – | – | – | – | – | – | less potent | – | – | – | – | – | – | – | – | – | – | among the most active hits | IC50 (β-hematin formation): 146000 nM and 198000 nM; Levels of 'free' heme or hemozoin relative to untreated controls [7]: no significant changes; Undigested hemoglobin levels [7]: modest concentration-dependent increase; Activity against P. berghei liver stage parasites [8]: did not show activity |
| O=C(Nc1ccc(Cl)c(Cl)c1)Nc1ccc(Cl)c(Cl)c1 [MMV665852] | – | – | – | – | – | – | – | – | – | – | – | – | – | – | – | – | – | most active compounds | – |
